Data taken from patent US12070445B2, “System and assay for monitoring production/release of membrane-lytic toxins in bacteria and compounds for modulating same” (priority 2021, dated 2024).
pIC50: −log10 of the molar value.

Test system: agr
Experiment: agr YFP transcriptional reporter assay (S. aureus AH1677 with pDB59)
Assay type: cell-based
Conditions: Staphylococcus aureus, 24 h, read-out: IC50 in the agr reporter assay
Procedure: Bacterial strains and culture. All bacteria were grown at 37° C. with 200 rpm shaking unless otherwise specified. S. aureus and P. aeruginosa were grown in BHI medium and LB medium, respectively. S. aureus AH1677 (with an agr-YFP reporter plasmid) and P. aeruginosa PAO1-PGSC (with a plasI-LVAgfp reporter plasmid) were used as QS transcriptional reporters and grown with 10 μg/mL chloramphenicol and 300 μg/mL carbenicillin, respectively. All other strains were grown without supplemental antibiotic. S. aureus RN6390b and P. aeruginosa PAO1-PGSC were used as WT strains in vesicle lysis experiments, while S. aureus RN9222 and P. aeruginosa PAO-JG35 were used as QS mutants. RN9222 was grown without antibiotic as it was not used as a reporter strain (i.e., it served only as QS mutant).
High-throughput screening and follow-up analysis protocols. Test compounds and positive control 1 were delivered in 2.5 nL aliquots of DMSO with an Echo 550 liquid handler (LabCyte Inc.) into black 384-well microtiter plates (Corning). All test compounds were tested at 10 μM; positive control 1 was tested at 250 nM. DMSO was used as a negative control. Overnight cultures (2 mL) of WT S. aureus (RN6390b) were grown at 37° C. with shaking at 200 rpm. These cultures were diluted 1:500 (v/v) in fresh BHI medium, at which point vesicle solutions were added to a final concentration of 1 mM phospholipid (as determined by ^31P NMR analyses). This vesicle-cell mixture was then added to the 384-well microtiter plates with a Multidrop 384 liquid-dispensing robot (Thermo Scientific) for a total volume of 50 μL per well. Plates were incubated statically for ˜24 hr at 37° C., at which point fluorescence (excitation 483, emission 530) and OD600 (absorbance at 600 nm) measurements were made using a CLARIOstarR Plus microtiter plate reader (BMG Labtech) running MARS data analysis software. Scatter plots were generated using the Collaborative Drug Discovery Vault informatics platform. The dose-response experiment using the vesicle lysis assay was performed in a 384-well plate in technical duplicate with compound concentrations of 0.1, 0.25, 0.5, 1, 2.5, 5, 10, and 20 μM. Dose-response curves were generated using variable slope (4 parameter) non-linear regression analysis for compound inhibition using GraphPad Prism software (v. 9). Analysis of the QS modulatory activity of the HTS hits and 6 (savirin) was performed using the S. aureus YFP transcriptional reporter strain. HTS hits were purchased directly from Life Chemicals, Inc. DMSO stock solutions (10 mM) of each compound were prepared and stored at −20° C. Serial dilutions (1:3) were prepared from the stock solutions in DMSO, and 2 μL aliquots of the resulting dilutions were added to the wells of black 96-well microtiter plates (Corning). Overnight cultures of the S. aureus reporter strain (2 mL) were grown at 37° C. with shaking at 200 rpm. Cultures were diluted 1:50 (v/v) into fresh BHI medium, and 198 μL of this diluted culture were added to each well containing compound, for a total volume of 200 μL per well. All plates contained a vehicle control consisting of 2 μL of DMSO and 198 μL of culture and a media control consisting of 200 μL BHI. Plates were incubated for ˜24 hours at 37° C. with shaking at 200 rpm. Fluorescence (excitation 510, emission 544) and OD600 measurements were acquired with a PerkinElmer EnVision microtiter plate reader running Envision Manager software. Background fluorescence from BHI control was subtracted from raw fluorescence reads, OD600 corrected, and finally normalized to vehicle control. Dose-response curves and IC50 values were generated using 3-parameter non-linear regression analysis for compound inhibition using GraphPad Prism software (v. 9). All compounds were tested in technical triplicate with at least 3 biological replicates.

## CC(C)c1ccc(S(=O)(=O)c2nnn3c2nc(O)c2ccccc23)cc1 [Compound 6, savirin]
  pIC50: 5.26
